Laboratory results from US4288341A, “Detergent product containing deodorant compositions” (priority 1978, dated 1981).

Molecular target: T1, lipoxidase (EC1.13.1.13) (Glycine max, UniProt P08170)
T1 sequence (P08170 1-839): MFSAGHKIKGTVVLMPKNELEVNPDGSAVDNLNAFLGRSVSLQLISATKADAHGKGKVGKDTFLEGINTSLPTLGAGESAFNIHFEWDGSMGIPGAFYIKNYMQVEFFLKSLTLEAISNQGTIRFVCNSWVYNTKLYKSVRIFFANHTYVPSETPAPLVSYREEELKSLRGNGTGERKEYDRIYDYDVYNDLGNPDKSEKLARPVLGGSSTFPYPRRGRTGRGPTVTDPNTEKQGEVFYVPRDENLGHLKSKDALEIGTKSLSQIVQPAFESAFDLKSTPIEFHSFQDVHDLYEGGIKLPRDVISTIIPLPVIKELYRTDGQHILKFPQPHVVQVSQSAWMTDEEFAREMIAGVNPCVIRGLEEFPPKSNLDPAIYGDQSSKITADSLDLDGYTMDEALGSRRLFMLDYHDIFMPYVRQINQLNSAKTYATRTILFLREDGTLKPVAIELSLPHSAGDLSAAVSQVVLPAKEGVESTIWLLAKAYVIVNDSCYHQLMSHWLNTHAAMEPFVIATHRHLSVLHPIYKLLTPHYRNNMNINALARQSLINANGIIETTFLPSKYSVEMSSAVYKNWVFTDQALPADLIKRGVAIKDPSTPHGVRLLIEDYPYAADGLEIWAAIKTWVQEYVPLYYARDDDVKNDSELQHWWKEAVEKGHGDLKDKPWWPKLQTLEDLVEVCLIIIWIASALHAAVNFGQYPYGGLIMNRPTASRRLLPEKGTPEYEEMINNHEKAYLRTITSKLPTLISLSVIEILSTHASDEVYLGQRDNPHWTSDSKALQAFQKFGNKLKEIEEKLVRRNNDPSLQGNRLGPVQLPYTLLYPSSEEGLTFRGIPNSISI
Experiment: Lipoxidase test: inhibition of the oxidation of linoleic acid by lipoxidase
Assay type: biochemical
Conditions: test substrate made with 0.5% by weight solution of material in ethanol; borate buffer pH 9.0; OD 234 nm

LIC (lipoxidase-inhibiting capacity, % inhibition): 16%
Substance: Dimyrcetol
